The test system of one data set is Candida albicans. As to the kind of experiment: Semi-quantitative screen of common buffers plus approx. 1.2 ppm PHMB for antimicrobial activity. The settings on record: for log reduction: buffer of equal molarity plus approx. 1.2 ppm PHMB, Candida albicans approx. 4x10^5 cfu/ml, estimated visually, in duplicate; for log reduction / estimated relative antimicrobial activity: 4.0 hour exposure; for estimated relative antimicrobial activity: buffer plus approx. 1.2 ppm PHMB, Candida albicans. It is filed as cell-based. As for the experimental part: In this example common buffers plus approximately 1.2 ppm PHMB are evaluated for antimicrobial activity against Candida albicans. The pH and molarity of each solution was adjusted to approximately the same values. In that log reductions are estimated by visual observation of solution color and/or pellet formation in the bottom of the test tube, the test is semi-quantitative. All tests were performed in duplicate. All of the biological buffers shown in are described in Biochemicals and Reagents, Sigma-Aldrich CO., 2000-2001 edition Sigma-Aldrich, or online at URL sigma-aldrich.com.
Tubes of sterile solutions of buffer of equal molarity plus approxiamately 1.2 ppm PHMB are challenged with a suspension of Candida albicans at approx. 4×10^5 cfu/ml. Following 4.0 hour exposure, aliquots of each test solution are serially diluted to 10^−5 in DEB. Following approx. 40 hours incubation at ˜32° C., the tubes are observed for discoloration of the DEB and for a pellet in the 10^−5 tube. The entire study is then performed in duplicate.

The conditions of data set [1]: cited from earlier work.

The text below walks through data of US7419944B2, “Aqueous disinfecting systems” (Novartis AG, priority 2000, dated 2008).

A value given as a limit tells only on which side of the number the result lay.

In the case of `O=S(=O)(O)CCCCN1CCOCC1` [MOBS], in the data set on Candida albicans, the log reduction is given as below 1 log.
Regarding Borate, in the data set on Candida albicans, the log reduction was 2-3 log and the “estimated relative antimicrobial activity” value is listed as “superior activity”.
Consider `O=S(=O)(O)CC(O)CN(CCO)CCO` (stereo not shown) [DIPSO], for which the log reduction in the data set on Candida albicans is reported as below 1 log.
Same read-out and setting: the result for `O=S(=O)(O)CCN1CCN(CCS(=O)(=O)O)CC1` [PIPES] reads “NONE”.
Regarding `O=S(=O)(O)CCCN1CCOCC1` [MOPS], the log reduction result with Candida albicans is on record as “NONE”.
For the compound `O=S(=O)(O)CCN(CCO)CCO` [BES], the log reduction entry in the data set with Candida albicans is reported as “NONE”.
For the compound `O=S(=O)(O)CC(O)CN1CCOCC1` (stereo not shown) [MOPSO], in the data set on Candida albicans, the log reduction result is given as “NONE”.
On the same count and under the same terms, for `NC(=O)CNCCS(=O)(=O)O` [ACES] the value was below 1 log.
The same measure, in the same setting: for `NC(=O)CN(CC(=O)O)CC(=O)O` [ADA] the value was “NONE”.
In the case of `OCCN(CCO)C(CO)(CO)CO` [BIS-TRIS], in the data set on Candida albicans, the log reduction is listed as 1 log and the “estimated relative antimicrobial activity” value is recorded as “better activity than phosphate”.
With `O=S(=O)(O)CC(O)CNC(CO)(CO)CO` (stereo not shown) [TAPSO], in the data set with Candida albicans, the log reduction is listed as 1 log and the “estimated relative antimicrobial activity” value is “better activity than phosphate”.
Take `O=S(=O)(O)CCN1CCN(CCO)CC1` [HEPES]: the log reduction with Candida albicans is below 1 log.
As for `OCC(CO)(CO)NCCCNC(CO)(CO)CO` [BIS-TRIS propane, 1,3-bis(tris[hydroxymethyl]methylamino)propane], the “pH range useful as a buffering agent” value in data set [1] (aqueous solutions) is given as 6.3-9.3. In addition, in data set [1] (dissociation constant), the pKa1 is 6.8 and the pKa2 was 9.5. Further, in the data set with Candida albicans, the log reduction is on record as 2-3 log and the “estimated relative antimicrobial activity” value is given as “superior activity”. The “antimicrobial activity compared with solutions employing any of the other buffering agents” value in the data set on Candida albicans (screening study of 15 biological buffers with polyhexamethylene biguanide or alexidine) was “significantly higher”.
Take `O=S(=O)(O)CCNC(CO)(CO)CO` [TES]: the log reduction in the data set on Candida albicans was below 1 log.
